Reference: patent EP2857388A1, “Azoles containing sulfone” (Grünenthal GmbH, priority 2013, dated 2015)

molecular target: T1, human B1R (Homo sapiens, UniProt P46663); assay: Functional assay at bradykinin receptor 1 (B1R): Ca2+ fluorescence (Fluo-4) in FLIPR/Novostar, antagonist mode; assay type: cell-based; conditions: test substance 10 µM; CHO K1 cells stably transfected with human B1R gene (hB1R-Zellen); agonist Lys-Des-Arg9-Bradykinin at EC80; % inhibition relative to maximal achievable inhibition; read-out: % Inhibierung (human B1R) bei 10 µM
T1 construct: expressed in transfected cells; host or cells: CHO K1 cells (Chinese Hamster Ovary), stably transfected
T1 sequence (P46663 1-353): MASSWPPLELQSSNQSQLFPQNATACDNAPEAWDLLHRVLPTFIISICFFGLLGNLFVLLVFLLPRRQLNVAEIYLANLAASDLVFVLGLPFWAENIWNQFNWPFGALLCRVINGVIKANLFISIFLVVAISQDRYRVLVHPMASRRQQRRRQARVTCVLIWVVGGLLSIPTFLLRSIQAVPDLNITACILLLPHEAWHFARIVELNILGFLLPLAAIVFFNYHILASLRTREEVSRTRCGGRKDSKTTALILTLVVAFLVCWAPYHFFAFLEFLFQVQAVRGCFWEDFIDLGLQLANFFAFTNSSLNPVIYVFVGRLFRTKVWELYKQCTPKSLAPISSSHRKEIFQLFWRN
Procedure: Die agonistische bzw. antagonistische Wirkung von Substanzen kann am Bradykinin Rezeptor 1 (B1R) der Spezies Mensch und Ratte mit ektopisch exprimierenden Zelllinien (CHO K1 Zellen) und mit Hilfe eines Ca^2+-sensitiven Farbstoffs (Fluo-4) im Fluorescent Imaging Plate Reader (FLIPR) quantifiziert werden. Die Angabe in % Aktivierung wird bezogen auf das Ca^2+-Signal nach Zugabe von Lys-Des-Arg^9-Bradykinin ([…]), bzw. Des-Arg^9-Bradykinin (100 nM). Antagonisten führen zu einer Unterdrückung des Ca^2+-Einstroms nach der Zugabe des Agonisten. Angegeben werden % Inhibition im Vergleich zu der maximal erreichbaren Inhibition.
Die agonistische bzw. antagonistische Wirkung von Substanzen kann am Bradykinin Rezeptor 1 (B1R) der Spezies Mensch und Ratte mit folgendem Assay bestimmt werden. Gemäß diesem Assay wird der intrazelluläre Ca^2+-Anstieg nach Gabe eines B1 R Agonisten mit Hilfe eines Ca^2+-sensitiven Farbstoffs (Typ Fluo-4, Molecular Probes Europe BV, Leiden NL) im Fluorescent Imaging Plate Reader (FLIPR, Molecular Devices, Sunnyvale, USA) und/oder im Novostar (BMG Labtech GmbH, Offenburg, DE) quantifiziert.
Es werden Chinese Hamster Ovary Zellen (CHO K1 Zellen) verwendet, die stabil mit dem humanen B1 R-Gen (hB1R-Zellen) bzw. dem B1 R-Gen der Ratte (rB1R-Zellen) transfiziert sind. Für funktionelle Untersuchungen werden diese Zellen auf schwarze 96-Loch-Platten mit klarem Boden (BD Biosciences, Heidelberg, DE oder Greiner, Frickenhausen, DE) in einer Dichte von 20.000 - 35.000 Zellen/Loch ausplattiert. Über Nacht werden die Zellen bei 37°C und 5 % CO2 in Kulturmedium (hB1 R-Zellen: Nutrient Mixture Ham's F12, Gibco Invitrogen GmbH, Karlsruhe, Deutschland oder DMEM, Sigma-Aldrich, Taufkirchen, Deutschland; rB1R-Zellen: D-MEM/F12, Gibco Invitrogen GmbH, Karlsruhe, DE) mit 10 Vol-% FBS (Fetal bovine serum, Gibco Invitrogen GmbH, Karlsruhe, DE oder PAN Biotech GmbH, Aidenbach, DE) belassen. Am folgenden Tag werden die Zellen mit 2,13 µM Fluo-4 (Molecular Probes Europe BV, Leiden, NL) in HBSS-Puffer (Hank's buffered saline solution, Gibco Invitrogen GmbH, Karlsruhe, DE) mit 2,5 mM Probenecid (Sigma-Aldrich, Taufkirchen, DE) und 10 mM HEPES (Sigma-Aldrich, Taufkirchen, DE) für 60 min bei 37°C beladen. Anschließend werden die Platten 2 x mit HBSS-Puffer gewaschen und mit HBSS-Puffer versetzt, der zusätzlich 0,1 % BSA (bovines Serumalbumin; Sigma-Aldrich, Taufkirchen, Deutschland), 5,6 mM Glucose und 0,05 % Gelatine (Merck KGaA, Darmstadt, DE) enthält. Nach einer weiteren Inkubation von 20 Minuten bei RT werden die Platten zur Ca^2+-Messung im FLIPR oder Novostar eingesetzt. Alternativ wird mit Puffer A (15 mM HEPES, 80 mM NaCl, 5 mM KCI, 1,2 mM CaCl2, 0,7 mM MgSO4, 2g/L Glucose, 2,5 mM Probenecid) gewaschen und mit Puffer A versetzt mit 2,5 µM Fluo-4 und 0,025 % Pluronic F127 (Sigma-Aldrich, Taufkirchen, DE) beladen. Danach werden die Zellen 2 x mit Puffer A gewaschen und für 30 Minuten mit Puffer A, der zusätzlich 0,05 % BSA und 0,05 % Gelatine enthält bei RT inkubiert und danach zur Ca^2+-Messung im FLIPR oder Novostar eingesetzt.
Die Ca^2+-abhängige Fluoreszenz wird dabei vor und nach Zugabe von Substanzen gemessen (λex = 488 nm, λem = 540 nm). Die Quantifizierung erfolgt durch die Messung der höchsten Fluoreszenzintensität (FC, Fluorescence Counts) über die Zeit.
Das FLIPR-Protokoll besteht aus 2 Substanzzugaben, die im FLIPR pipettiert werden. Bei Messungen im Novostar wird nur die zweite Substanzzugabe im Gerät pipettiert. Beide Geräte messen die Fluoreszenzintensität über die Zeit. Zunächst werden Testsubstanzen (10 µM) auf die Zellen pipettiert und der intrazelluläre Ca^2+-Anstieg mit der Kontrolle (hB1 R: Lys-Des-Arg^9-Bradykinin >= 50 nM; rB1 R: Des-Arg^9-Bradykinin >= 1 µM) verglichen. Daraus ergibt sich die Angabe in % Aktivierung bezogen auf das Ca^2+-Signal nach Zugabe von Lys-Des-Arg^9-Bradykinin (>= 50 nM), bzw. Des-Arg^9-Bradykinin (>=1 µM). Nach 6-20 Minuten Inkubation werden Lys-Des-Arg^9-Bradykinin (hB1 R) bzw. […]

SMILES	inhibition at 10 µM
COc1cc(C)c(S(=O)(=O)Cc2nc(CC(=O)NC3CCC(NC4CC4)CC3(C)C)no2)c(C)c1 (stereo not drawn) [CC-35, N-[4-(Cyclopropylamino)-2,2-dimethyl-cyclohexyl]-2-[5-[[(4-methoxy-2,6-dimethyl-phenyl)sulfonyl]-methyl]-[1,2,4]oxadiazol-3-yl]-acetamid]	100%
COc1cc(C)c(S(=O)(=O)Cc2nnc(CC(=O)NC3CCC(c4ccncc4)CC3(C)C)o2)c(C)c1 (stereo not drawn) [CC-36, N-(2,2-Dimethyl-4-pyridin-4-yl-cyclohexyl)-2-[5-[[(4-methoxy-2,6-dimethyl-phenyl)sulfonyl]-methyl]-[1,3,4]oxadiazol-2-yl]-acetamid]	100%
COc1cc(C)c(S(=O)(=O)Cc2nc(CC(=O)NC3CCC(c4ccncc4)CC3(C)C)no2)c(C)c1 (stereo not drawn) [CC-37, N-(2,2-Dimethyl-4-pyridin-4-yl-cyclohexyl)-2-[5-[[(4-methoxy-2,6-dimethyl-phenyl)sulfonyl]-methyl]-[1,2,4]oxadiazol-3-yl]-acetamid]	99%
COc1cc(C)c(S(=O)(=O)Cc2nnc(CC(=O)NC3CCC(N4CCCC4)CC3)o2)c(C)c1 (stereo not drawn) [CC-40]	100%
COc1cc(C)c(S(=O)(=O)Cc2nc(CC(=O)NC3CCNCC3)no2)c(C)c1 [CC-42, 2-[5-[[(4-Methoxy-2,6-dimethyl-phenyl)sulfonyl]-methyl]-[1,2,4]oxadiazol-3-yl]-N-piperidin-4-yl-acetamid]	100%
Cc1cc(S(=O)(=O)Cc2noc(CC(=O)NC3CCC(N4CCCC4)CC3(C)C)n2)c(C)cc1Cl (stereo not drawn) [CC-43, 2-[3-[[(4-Chlor-2,5-dimethyl-phenyl)sulfonyl]-methyl]-[1,2,4]oxadiazol-5-yl]-N-(2,2-dimethyl-4-pyrrolidin-1-yl-cyclohexyl)-acetamid]	99%
Cc1cc(S(=O)(=O)Cc2noc(CC(=O)NC3CCC(N4CCN(C)CC4)CC3(C)C)n2)c(C)cc1Cl (stereo not drawn) [CC-45, 2-[3-[[(4-Chlor-2,5-dimethyl-phenyl)sulfonyl]-methyl]-[1,2,4]oxadiazol-5-yl]-N-[2,2-dimethyl-4-(4-methyl-piperazin-1-yl)-cyclohexyl]-acetamid]	100%
CC(=O)N1CCC(NC(=O)Cc2nc(CS(=O)(=O)c3cc(C)c(Cl)cc3C)no2)C(C)(C)C1 (stereo not drawn) [CC-46, N-(1-Acetyl-3,3-dimethyl-piperidin-4-yl)-2-[3-[[(4-chlor-2,5-dimethyl-phenyl)sulfonyl]-methyl]-[1,2,4]oxadiazol-5-yl]-acetamid]	64%
CC(=O)N1CCC(NC(=O)Cc2nc(CS(=O)(=O)c3cccc(Cl)c3Cl)no2)C(C)(C)C1 (stereo not drawn) [CC-47, N-(1-Acetyl-3,3-dimethyl-piperidin-4-yl)-2-[3-[[(2,3-dichlor-phenyl)sulfonyl]-methyl]-[1,2,4]oxa-diazol-5-yl]-acetamid]	62%
CN1CCN(C2CCC(NC(=O)Cc3nc(CS(=O)(=O)c4cccc(Cl)c4Cl)no3)C(C)(C)C2)CC1 (stereo not drawn) [CC-48, 2-[3-[[(2,3-Dichlor-phenyl)sulfonyl]-methyl]-[1,2,4]oxadiazol-5-yl]-N-[2,2-dimethyl-4-(4-methyl-piperazin-1-yl)-cyclohexyl]-acetamid]	81%
CN(C)C1CCC(NC(=O)Cc2nc(CS(=O)(=O)c3ccc(Cl)c(Cl)c3)no2)CC1 (stereo not drawn) [CC-50, 2-[3-[[(3,4-Dichlorphenyl)sulfonyl]-methyl]-[1,2,4]oxadiazol-5-yl]-N-(4-dimethylamino-cyclohexyl)-acetamid]	54%
COc1cc(C)c(S(=O)(=O)Cc2nc(CC(=O)NC3CCNCC3(C)C)no2)c(C)c1 (stereo not drawn) [CC-52, N-(3,3-Dimethyl-piperidin-4-yl)-2-[5-[[(4-methoxy-2,6-dimethyl-phenyl)sulfonyl]-methyl]-[1,2,4]oxa-diazol-3-yl]-acetamid]	100%
CC1(C)CC(N2CCCC2)CCC1NC(=O)Cc1nc(CS(=O)(=O)c2ccc(Cl)c(Cl)c2)no1 (stereo not drawn) [CC-53, 2-[3-[[(3,4-Dichlorphenyl)sulfonyl]-methyl]-[1,2,4]oxadiazol-5-yl]-N-(2,2-dimethyl-4-pyrrolidin-1-yl-cyclohexyl)-acetamid]	100%
O=C(Cc1nc(CS(=O)(=O)c2cccc(Cl)c2Cl)no1)NC1CCNCC1 [CC-54, 2-[3-[[(2,3-Dichlor-phenyl)sulfonyl]-methyl]-[1,2,4]oxadiazol-5-yl]-N-piperidin-4-yl-acetamid]	52%
Cc1cc(S(=O)(=O)Cc2noc(CC(=O)NC3CCC(NC4CC4)CC3(C)C)n2)c(C)cc1Cl (stereo not drawn) [CC-57, 2-[3-[[(4-Chlor-2,5-dimethyl-phenyl)sulfonyl]-methyl]-[1,2,4]oxadiazol-5-yl]-N-[4-(cyclopropyl-amino)-2,2-dimethyl-cyclohexyl]-acetamid]	100%
CN(C)C1CCC(NC(=O)Cc2nc(CS(=O)(=O)c3cccc(Cl)c3Cl)no2)CC1 (stereo not drawn) [CC-59, 2-[3-[[(2,3-Dichlor-phenyl)sulfonyl]-methyl]-[1,2,4]oxadiazol-5-yl]-N-(4-dimethylamino-cyclohexyl)-acetamid]	63%
Cc1cc(S(=O)(=O)Cc2noc(CC(=O)NC3CCNCC3(C)C)n2)c(C)cc1Cl (stereo not drawn) [CC-62, 2-[3-[[(4-Chlor-2,5-dimethyl-phenyl)sulfonyl]-methyl]-[1,2,4]oxadiazol-5-yl]-N-(3,3-dimethyl-piperidin-4-yl)-acetamid]	54%
COc1cc(C)c(S(=O)(=O)Cc2nnc(CC(=O)NC3CCN(C(C)=O)CC3(C)C)o2)c(C)c1 (stereo not drawn) [CC-69, N-(1-Acetyl-3,3-dimethyl-piperidin-4-yl)-2-[5-[[(4-methoxy-2,6-dimethyl-phenyl)sulfonyl]-methyl]-[1,3,4]oxadiazol-2-yl]-acetamid]	81%
Cc1cc(S(=O)(=O)Cc2noc(CC(=O)NC3CCC(N4CCCC4)CC3)n2)c(C)cc1Cl (stereo not drawn) [CC-70, 2-[3-[[(4-Chlor-2,5-dimethyl-phenyl)sulfonyl]-methyl]-[1,2,4]oxadiazol-5-yl]-N-(4-pyrrolidin-1-yl-cyclohexyl)-acetamid]	93%
O=C(Cc1nc(CS(=O)(=O)c2cccc(Cl)c2Cl)no1)NC1CCC(N2CCCC2)CC1 (stereo not drawn) [CC-71, 2-[3-[[(2,3-Dichlor-phenyl)sulfonyl]-methyl]-[1,2,4]oxadiazol-5-yl]-N-(4-pyrrolidin-1-yl-cyclohexyl)-acetamid]	73%
COCCN1CCC(NC(=O)Cc2nc(CS(=O)(=O)c3cccc(Cl)c3Cl)no2)C(C)(C)C1 (stereo not drawn) [CC-72, 2-[3-[[(2,3-Dichlor-phenyl)sulfonyl]-methyl]-[1,2,4]oxadiazol-5-yl]-N-[1-(2-methoxy-ethyl)-3,3-di-methyl-piperidin-4-yl]-acetamid]	60%
